Experimental data from patent US6515025B2, “Use of ethynyl alanine amino diol compounds to inhibit enzymatic conversion of angiotensinogen to angiotensin I” (Pharmacia Corporation, priority 1991, dated 2003).
Where “and” joins values, the source holds several entries; their conditions need not be identical. Identical values can stand only once. Like-named read-outs stand apart in the source and are kept apart here.

Tests used:
[1] = test system: salt-depleted, conscious marmosets; assay: Marmoset blood pressure reduction on intravenous administration; format: in vivo, Marmoset monkeys (Callithrix jacchus); settings: 100 micrograms/kg intravenously
Experimental: The blood pressure reducing activity of the renin inhibitor compound of Example 1 was determined in vivo in Marmoset monkeys using the following procedure. Common Marmoset monkeys (Callithrix jacchus, Charles River, both sexes, body weight ca. 400 g) were placed on a modified high protein low sodium diet (Purina, St. Louis, Mo.) for 1 week. 24 hours prior to the administration of test compound, Lasix (5 mg/kg, im) was given. On the day of the test, the animal was anesthetized with isoflurane, body weight recorded, and the left femoral artery and vein were catheterized. The animal was allowed to regain consciousness and the title compound of Example 1 (100 micrograms/kg) was administered intravenously in 0.1 mL/kg polyethylene glycol 400 at time zero. Mean arterial blood pressure (MABP) in mmHg was then recorded every ten minutes until 120 minutes.

[2] = Oral bioavailability studies in dogs (plasma concentration by bioassay); format: in vivo; settings: dog; for concentration at 2 min / concentration at 5 min: iv
Experimental: The bioavailability in marmosets and dogs was determined by sampling the blood via the femoral vein at various time points after administering the renin inhibitor compounds of the invention in polyethylene glycol 400 at an intragastric dose of 10 mg/kg or at an intravenous dose of 1 mg/kg. Compound concentration in plasma was determined using the bioassay technique described below. The percent bioavailability was calculated by dividing the area under the concentration-vs.-time curve obtained from the intragastric experiment by the area under the concentration-vs.-time curve obtained from the intravenous experiment (adjusting for different doses), and multiplying the result by 100%. The bioavailibility of Example 1 compound is 27% in marmosets and 33% in dogs.
Renin inhibitor plasma concentrations were determined by a bioassay. The plasma samples were extracted with acetonitrile and the extract was evaporated to dryness under nitrogen. Residue was dissolved in 4% bovine serum albumin containing 0.9% NaCl and 5% EDTA. The dissolved residue (0.1 ml) was incubated with a reaction mixture containing human plasma (0.12 ml), 5% phenylmethysulfonylfluoride (1.2 ul), 10% neomycin (2.4 ul), 0.5 M TES buffer (pH 7.4, 24 ul), and 0.6 mU/ml recombinant human renin (1000 U/mg, 50 ul) at 37° C. for 90 minutes. The renin activity was determined by a standard angiotensin I radioimmunoassay (New England Nuclear Corp.). The amount of test compound in the plasma was determined by comparing the extent of inhibition of renin activity with that produced by a known amount of test compound added to plasma and analyzed above.

Oral (%) Bioavail, Mean ± SE ([2]; IG 10 mg/kg vs IV 1 mg/kg): 33.1 ± 3.8% | Oral (%) Bioavail ([2]; IG 10 mg/kg vs IV 1 mg/kg, individual animals): 35.8% and 25.6% and 38.0% | Estimated Plasma Concentration ([2]; IG at 10 mg/kg, 1 hr, individual animals, 10 mg/kg): 859.6 ng/mL | Estimated Plasma Concentration ([2]; IG at 10 mg/kg, 2 hr, individual animals, 10 mg/kg): 352.7 ng/mL and 554.5 ng/mL | Estimated Plasma Concentration ([2]; IG at 10 mg/kg, 4 hr, individual animals, 10 mg/kg): 68.8 ng/mL and 130.3 ng/mL | Estimated Plasma Concentration ([2]; IG at 10 mg/kg, 6 hr, individual animals, 10 mg/kg): 47.1 ng/mL and 72.4 ng/mL | Estimated Plasma Concentration ([2]; IG at 10 mg/kg, 8 hr, individual animals, 10 mg/kg): 25.4 ng/mL and 45.4 ng/mL | Estimated Plasma Concentration ([2]; IG at 10 mg/kg, 24 hr, individual animals, 10 mg/kg): 8.4 ng/mL and 8.0 ng/mL | Estimated Plasma Concentration ([2]; IV at 1 mg/kg, 2 min, individual animals, 1 mg/kg): 3284.4 ng/mL and 2982.7 ng/mL | Estimated Plasma Concentration ([2]; IV at 1 mg/kg, 5 min, individual animals, 1 mg/kg): 680.9 ng/mL and 521.1 ng/mL | Estimated Plasma Concentration ([2]; IV at 1 mg/kg, 10 min, individual animals, 1 mg/kg): 307.1 ng/mL and 218.0 ng/mL | Estimated Plasma Concentration ([2]; IV at 1 mg/kg, 15 min, individual animals, 1 mg/kg): 144.4 ng/mL and 146.9 ng/mL | Estimated Plasma Concentration ([2]; IV at 1 mg/kg, 30 min, individual animals, 1 mg/kg): 102.8 ng/mL and 122.5 ng/mL | Estimated Plasma Concentration ([2]; IV at 1 mg/kg, 1 hr, individual animals, 1 mg/kg): 67.6 ng/mL and 50.0 ng/mL | Estimated Plasma Concentration ([2]; IV at 1 mg/kg, 2 hr, individual animals, 1 mg/kg): 56.0 ng/mL and 69.8 ng/mL | Estimated Plasma Concentration ([2]; IV at 1 mg/kg, 4 hr, individual animals, 1 mg/kg): 23.5 ng/mL | Estimated Plasma Concentration ([2]; IV at 1 mg/kg, 6 hr, individual animals, 1 mg/kg): 10.2 ng/mL and 13.5 ng/mL | Estimated Plasma Concentration ([2]; IV at 1 mg/kg, 8 hr, individual animals, 1 mg/kg): 4.9 ng/mL and 6.1 ng/mL | Estimated Plasma Concentration ([2]; IV at 1 mg/kg, 24 hr, individual animals, 1 mg/kg): 1.5 ng/mL and 1.3 ng/mL | Vd ([2]; individual animals): 8.7 L/kg and 8.3 L/kg | t1/2 ([2]; individual animals): 4.4 h and 4.3 h | half-life ([2]; plasma, dogs, read-out: terminal half-life (converted)): 4.7 h | Vd ([2]; plasma, dogs, read-out: volume of distribution): 9.5 L/kg | Vd ([2]; plasma, individual animals, read-out: Vd): 11.5 L/kg | half-life ([2]; plasma, individual animals, read-out: t1/2 (converted)): 5.3 h | concentration at 2 min ([2]; plasma, 1 mg/kg, IV at 1 mg/kg, 2 min, individual animals, read-out: Estimated Plasma Concentration): 2420 ng/mL | concentration at 2 min ([2]; plasma, 1 mg/kg, IV at 1 mg/kg, 2 min, read-out: Estimated Plasma Concentration, Mean ± SE): 2890 ± 254 ng/mL | concentration at 5 min ([2]; plasma, 1 mg/kg, IV at 1 mg/kg, 5 min, individual animals, read-out: Estimated Plasma Concentration): 613 ng/mL | concentration at 5 min ([2]; plasma, 1 mg/kg, IV at 1 mg/kg, 5 min, read-out: Estimated Plasma Concentration, Mean ± SE): 605 ± 46.3 ng/mL
Structure (SMILES): C#CC[C@H](NC(=O)C(CC(=O)N(C)CCN(C)C)Cc1ccccc1)C(=O)NC(CC1CCCCC1)[C@@H](O)C(O)CC(C)C (relative stereo) [Example 1, N1-[1R*-[[[1S,1R*-(cyclohexylmethyl)-2S*,3R*-dihydroxy-5-methylhexyl]amino]carbonyl]-3-butynyl]-N4-[2-(dimethylamino)ethyl]-N4-methyl-2S*-(phenylmethyl)butanediamide]
MABP ([1]; 10 min (n = 3)): 106 mmHg | MABP ([1]; 20 min (n = 3)): 97 mmHg | MABP ([1]; 30 min (n = 3)): 93 mmHg | MABP ([1]; 40 min (n = 3)): 92 mmHg | MABP ([1]; 50 min (n = 3)): 90 mmHg | MABP ([1]; 60 min (n = 3)): 89 mmHg | MABP ([1]; 70 min (n = 3)): 87 mmHg | MABP ([1]; 80 min (n = 3)): 88 mmHg | MABP ([1]; 90 min (n = 3)): 89 mmHg | MABP ([1]; 100 min (n = 3)): 91 mmHg | MABP ([1]; 110 min (n = 3)): 93 mmHg | MABP ([1]; 120 min (n = 3)): 94 mmHg | MABP ([1]; time 0 min (n = 3)): 118 mmHg | effect on blood pressure (in words) ([1]; salt-depleted, conscious marmosets): lowers blood pressure | Estimated Plasma Concentration ([2]; IG at 10 mg/kg, 15 min, individual animals, 10 mg/kg): 105.7 ng/mL and <2.0 ng/mL and 265.6 ng/mL | Estimated Plasma Concentration ([2]; IG at 10 mg/kg, 30 min, individual animals, 10 mg/kg): 495.9 ng/mL and 330.4 ng/mL and 864.7 ng/mL
